Values after ≈ are worked out from the molar mass of the structure shown.
Tests used:
[1] = target: Rickettsia high-affinity SAMe transport system (Rickettsia prowazekii, UniProt Q9ZE70); settings: Rickettsia SAMe transporter; cited from earlier work
[2] = target: T1, SAMe transporter from S. cerevisiae (Saccharomyces cerevisiae, UniProt Q08986); settings: cited from earlier work
T1 sequence (Q08986 1-587): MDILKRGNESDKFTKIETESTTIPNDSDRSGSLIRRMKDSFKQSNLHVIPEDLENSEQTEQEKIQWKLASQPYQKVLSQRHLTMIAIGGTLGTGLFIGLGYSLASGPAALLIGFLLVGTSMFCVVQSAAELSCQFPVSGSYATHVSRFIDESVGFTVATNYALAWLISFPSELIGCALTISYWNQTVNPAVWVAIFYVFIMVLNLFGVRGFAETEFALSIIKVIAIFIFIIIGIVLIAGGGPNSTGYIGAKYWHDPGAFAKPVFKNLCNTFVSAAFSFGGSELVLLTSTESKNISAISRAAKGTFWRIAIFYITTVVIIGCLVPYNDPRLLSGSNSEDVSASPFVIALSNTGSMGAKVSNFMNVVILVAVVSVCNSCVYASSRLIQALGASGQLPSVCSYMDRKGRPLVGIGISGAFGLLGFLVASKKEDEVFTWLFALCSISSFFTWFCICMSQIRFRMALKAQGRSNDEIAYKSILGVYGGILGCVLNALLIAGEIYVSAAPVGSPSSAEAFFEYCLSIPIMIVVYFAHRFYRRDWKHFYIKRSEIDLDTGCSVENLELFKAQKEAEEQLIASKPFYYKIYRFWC

[3] = test system: SAMe transporter from P. carnii; settings: cited from earlier work
[4] = test system: SAMe transporter from rat liver; settings: cited from earlier work
[5] = test system: homocysteine synthase encoded by metY from Pseudomonas aeruginosa; experiment: Homocysteine synthase (MetY) activity assay (Yamagata, modified, DTNB detection)
physchem = settings: 30 °C, water
Description: This is close to the highest concentration achievable in the assay conditions.

[6] = 30° C.; cited from earlier work
[7] = target: high affinity L-methionine transporter (metD) (Escherichia coli, UniProt P28635); settings: very high affinity transporter in E. coli; cited from earlier work
high affinity L-methionine transporter (metD), sequence (P28635 23-271): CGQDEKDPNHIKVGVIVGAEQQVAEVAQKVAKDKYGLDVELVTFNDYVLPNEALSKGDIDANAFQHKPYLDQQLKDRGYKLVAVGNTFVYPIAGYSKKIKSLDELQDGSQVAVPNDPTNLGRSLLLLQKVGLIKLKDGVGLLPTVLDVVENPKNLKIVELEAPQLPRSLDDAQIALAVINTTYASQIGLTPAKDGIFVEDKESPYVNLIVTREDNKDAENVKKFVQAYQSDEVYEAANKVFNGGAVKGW
high affinity L-methionine transporter (metD), sequence (P30750 whole entry, further chain): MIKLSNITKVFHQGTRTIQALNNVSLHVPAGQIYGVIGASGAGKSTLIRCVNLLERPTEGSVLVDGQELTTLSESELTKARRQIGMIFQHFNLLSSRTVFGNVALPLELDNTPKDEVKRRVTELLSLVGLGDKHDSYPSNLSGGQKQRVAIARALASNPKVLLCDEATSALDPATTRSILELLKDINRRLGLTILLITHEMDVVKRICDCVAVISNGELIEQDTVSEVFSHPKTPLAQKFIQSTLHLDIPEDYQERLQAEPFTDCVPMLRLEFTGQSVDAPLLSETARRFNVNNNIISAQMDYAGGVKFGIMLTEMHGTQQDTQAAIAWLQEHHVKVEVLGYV
high affinity L-methionine transporter (metD), sequence (P31547 whole entry, further chain): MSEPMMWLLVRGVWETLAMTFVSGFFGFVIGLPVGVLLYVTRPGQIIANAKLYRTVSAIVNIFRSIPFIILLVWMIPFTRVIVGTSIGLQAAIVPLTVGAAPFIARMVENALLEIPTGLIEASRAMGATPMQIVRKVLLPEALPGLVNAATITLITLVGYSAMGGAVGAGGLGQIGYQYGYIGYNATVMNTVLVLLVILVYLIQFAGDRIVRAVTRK

[8] = test system: lower affinity L-methionine transporter (metP); settings: lower affinity transporter in E. coli; cited from earlier work
O-succinylsulfhydrylase = target: T2, O-succinylsulfhydrylase (Pseudomonas aeruginosa, UniProt P55218); experiment: In-vitro assays of O-succinylsulfhydrylase; format: biochemical
T2 sequence (P55218 whole entry, looked up): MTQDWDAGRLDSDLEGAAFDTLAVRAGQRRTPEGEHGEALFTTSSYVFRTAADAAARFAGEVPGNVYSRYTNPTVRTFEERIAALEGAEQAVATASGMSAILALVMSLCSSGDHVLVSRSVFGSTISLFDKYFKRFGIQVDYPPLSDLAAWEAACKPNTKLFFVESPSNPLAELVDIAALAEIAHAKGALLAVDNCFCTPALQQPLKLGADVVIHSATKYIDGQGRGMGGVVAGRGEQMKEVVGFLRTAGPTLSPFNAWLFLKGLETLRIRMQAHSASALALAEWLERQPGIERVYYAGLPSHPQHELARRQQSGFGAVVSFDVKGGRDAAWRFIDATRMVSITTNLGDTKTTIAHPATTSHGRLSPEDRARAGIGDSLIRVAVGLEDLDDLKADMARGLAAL
Protocol: Low methionine production of the deletion mutants transformed with metZ may be due to the limitation of sulfide in the intracellular fraction (methods of increasing sulfide concentration are provided below). This is supported by the finding that the growth of the metBC deletion strain transformed with metZ was enhanced in M9 media in the presence of 2 mM sodium sulfide. […] Through directed evolution, it is possible to develop improved O-succinylsulfhydrylases with higher sulfide affinity and also higher activity.

MetK = MetK mutants radioactive assay in vitro ([methyl-14C]methionine to SAMe); format: biochemical, E. coli; settings: 5 minute reaction time; C-terminal His tagged proteins unless untagged
Protocol: The metK gene from E. coli (Accession number AP—003499 or BAE77005) was cloned and overexpressed with either an N-terminal or a C-terminal His tag in pET28b vector. Site directed mutagenesis was performed using the C-terminal His tagged metK clone to generate the desired mutants. Expression of the mutant MetK proteins was confirmed.
The MetK mutants were purified (using the C-terminal His tag) and assayed in vitro. The wild type C-terminal His-tagged MetK protein was used as a control. The mutants were assayed using a radioactive assay. The assay conditions were as follows: • Assay Mix: • 1.0 mL 0.5 M HEPES/KOH, pH 8.0 • 0.5 mL 1.0 M KCl • 0.2 mL 1.0 M MgCl2 • 1.0 mL 100 mM ATP (disodium salt, pH 8.0 with KOH) • 0.1 mL 50 mM methionine • 0.1 mL NEN [methyl-^14C]methionine • 6.6 mL H2O • 25 mM EDTA pH 8.0 stop for assays.
45 μl of assay mix was added to an Eppendorf tube and 5 μL of enzyme (normalized data shown in Table 13. The reaction was incubated at room temperature (or 25° C.) for a desired period (1 to 10 minutes). The reaction was stopped with the addition of 150 μL of 25 mM EDTA. 100 μL of the reaction was spotted onto a 2.5 cm diameter Whatman P-81 phosphocellulose filter circle (labeled in pencil). The filters were washed with 3 L of distilled water, air-dried and placed in scintillation vials with aquasol. The emissions were counted using a window that extends from ^14C to about 0. Assay efficiency and quench levels were determined by adding a known amount of counts of pure ^14C-SAM and processing through the whole procedure. Backgrounds are typically<100 cpm (total counts ca. 10^5 cpm per reaction).

excreted Met = settings: literature reference AEM 2005; cited from earlier work
[9] = OAHS as substrate, 10 mM inhibitor

Rickettsia high-affinity SAMe transport system, sequence (Q9ZE70 whole entry, looked up): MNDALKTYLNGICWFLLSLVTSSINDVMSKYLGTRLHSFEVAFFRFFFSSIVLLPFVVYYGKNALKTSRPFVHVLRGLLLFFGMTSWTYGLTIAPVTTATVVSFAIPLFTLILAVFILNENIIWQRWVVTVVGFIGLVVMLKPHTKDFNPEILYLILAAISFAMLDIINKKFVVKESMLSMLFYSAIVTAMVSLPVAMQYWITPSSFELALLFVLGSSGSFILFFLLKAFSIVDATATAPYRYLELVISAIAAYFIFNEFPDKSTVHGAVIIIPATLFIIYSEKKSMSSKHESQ

## C[S+](CC[C@H](N)C(=O)O)C[C@H]1O[C@@H](n2cnc3c(N)ncnc32)[C@H](O)[C@@H]1O (stereo partly drawn) [SAMe, S-adenosylmethionine]
[1]
  KT: 2 to 8 µM
[2]
  KT: 3.3 µM
[3]
  KT: 4.5 µM
[4]
  KT: 8.9 µM
[5]; OAHS as substrate, 5 mM inhibitor
  activity retained relative to absence of inhibitor: approximately 72%
[5]; [9]
  activity retained relative to absence of inhibitor: ~21%
[5]; OSHS as substrate, 5 mM inhibitor
  activity retained relative to absence of inhibitor: 86%
[5]; OSHS as substrate, 10 mM inhibitor
  activity retained relative to absence of inhibitor: 19%

## CSCC[C@H](N)C(=O)O [methionine]
physchem
  solubility: 375000 µM (≈ 56 mg/mL)
[6]
  solubility in water: 5.6 g/100 mL
[7]
  Km: 0.1 to 0.13 µM
[8]
  Km: 20 to 40 µM
[5]; 1 mM methionine
  inhibition of MetY: Some inhibition
[5]; [9]
  activity retained relative to absence of inhibitor: about 50%
[5]; OAHS as substrate, 50 mM inhibitor
  activity retained relative to absence of inhibitor: ~19%
[5]; OAHS as substrate, 100 mM inhibitor
  activity retained relative to absence of inhibitor: ~9%
[5]; OSHS as substrate, 50 mM inhibitor
  activity retained relative to absence of inhibitor: 53%
[5]; OSHS as substrate, 100 mM inhibitor
  activity retained relative to absence of inhibitor: 31%

B1: O-succinylsulfhydrylase: O-succinylsulfhydrylase (EC 4.2.99.-) codified by metZ from Pseudomonas aeruginosa (protein, UniProt P55218 1-403, looked up)
O-succinylhomoserine …: T2 sequence (P55218 whole entry, looked up)
O-succinylsulfhydrylase
  sulfide affinity: low sulfide affinity

B2: Val 185 Glu: E. coli MetK mutant, C-terminal His tagged, purified (protein, UniProt P0A817 2-384, looked up, variant V185E)
S-adenosylmethionine synthase: AKHLFTSESVSEGHPDKIADQISDAVLDAILEQDPKARVACETYVKTGMVLVGGEITTSAWVDIEEITRNTVREIGYVHSDMGFDANSCAVLSAIGKQSPDINQGVDRADPLEQGAGDQGLMFGYATNETDVLMPAPITYAHRLVQRQAEVRKNGTLPWLRPDAKSQVTFQYDDGKIVGIDAVELSTQHSEEIDQKSLQEAVMEEIIKPILPAEWLTSATKFFINPTGRFVIGGPMGDCGLTGRKIIVDTYGGMARHGGGAFSGKDPSKVDRSAAYAARYVAKNIVAAGLADRCEIQVSYAIGVAEPTSIMVETFGTEKVPSEQLTLLVREFFDLRPYGLIQMLDLLHPIYKETAAYGHFGREHFPWEKTDKAQLLRDAAGLK
modifications: C-terminal His tag
notes: E. coli MetK mutant, C-terminal His tagged, purified
MetK
  Activity (CPM SAMe/ μg purified protein/min): 4.9 CPM SAMe/ μg purified protein/min
Excreted Met
  Expected Effect: increase in excreted Met over control: 6.4X increase in
